Patent US5686061A, “Particulate contrast media derived from non-ionic water soluble contrast agents for CT enhancement of hepatic tumors” (priority 1994, dated 1997)
Entries after “also recorded” stand apart in the source; their conditions may differ. Like-named read-outs stand apart in the source and are kept apart here.

Legend:
[1] = background; cited from earlier work
endothelial cells = conditions: background; cited from earlier work
[2] = Enzymatic degradation of IX-C particles in rabbit plasma; format: in vitro ADME; conditions: plasma samples
Method: (§1) Degradation of IX-C particles was investigated by incubating a suspension of the particles (25 mg) in the following solutions (each 1 ml) at 37° C.:0.1 N HCl, 0.1 N NaOH, saline, and rabbit plasma. The disappearance of the particles in the suspensions was noted by visual observations and the integrity of the particles was examined by scanning electron microscopy. To identify the degradation products, the residual solutions were subjected to analysis by HPLC. The HPLC system consisted of a RP-18 column, a Perkin-Elmer isocratic LC pump (Model 250), a PE Nelson 900 series interface, a Spectra-Physics UV/Vis detector (Model SP 8540) and a data station. The eluant (10% methanol in double distilled water) was run at 0.8 ml/min. with UV detection at 254 nm. Samples in HCl or NaOH were neutralized before injection. Plasma samples were first treated with PCA (0.4 N) and centrifuged to remove precipitate proteins. The supernatants were then injected for HPLC analysis.

[3] = Hydrolytic degradation of IX-C particles (HCl, NaOH, saline); format: physicochemical; conditions: supernatants of all samples (HCl, NaOH, saline, plasma)
Method: as §1

liver = experiment: Computed tomography of liver in normal rabbits; format: in vivo, New Zealand white rabbits; conditions: predicted from CT imaging data
Method: New Zealand white rabbits (male, 3.0 to 3.5 kg) were anesthetized by an intramuscular injection of a solution containing xylazine (8.6 mg/ml), ketamine (42.9 mg/ml), and acepromazine (1.4 mg/ml) at a dose of 0.4 ml/kg for a long-lasting effect. Intravenous catheters (22-gauge) were placed in a marginal ear vein for the introduction of particle suspension. Rabbits were positioned supine in a GE model 9800 Quick scanner (Milwaukee, Wis.). The particulate contrast agent of proper volume (8% I, w/v in saline) was injected through the catheterized ear vein over a period of 10 to 15 minutes.
CT imaging of radiopaque particles (80 mg I/ml) was carried out at doses of 100, 200, and 270 mg I/kg body weight respectively. Three rabbits were used for each dose level. CT imaging was done with a scan speed of 1.0 seconds, 120 kV, 280 mAs, and a 25-cm field of view. Sequential, contiguous 3-mm-thick slices through the abdomen and 5-mm-thick-slices through the pelvis were obtained before contrast injection, immediately after injection and at various times (15 and 30 minutes, 1, 2, and 6 hours, and 1, 2, and 7 days after injection). The rabbits were killed with an overdose of pentobarbital sodium (50 mg/kg) administered via the catheterized ear vein.
Densitometric analysis of the liver, kidney, aorta, and bladder were performed. […]

Solubility of IX-C = format: physicochemical
in vivo = conditions: mouse, in vivo, iv
Method: (§2) Swiss Webster mice (Harlan Sprague Dawley Inc., Indianapolis, Ind.) weighing between 25 and 30 g were given doses ranging from 0.2 to 1 ml/mouse. Five animals were used for each dose. No anesthesia was used for injection. Following the injection, animals were monitored daily for 7 days. The percentage survival vs. dose curve was constructed to estimate LD50.

Swiss Webster mice = experiment: in vivo; conditions: male and female mice
Method: as §2

CC(=O)N(CC(O)CO)c1c(I)c(C(=O)NCCO)c(I)c(C(=O)NCC(O)CO)c1I (centres unmarked) [IOXILAN]
overall biological tolerance [1]: high overall biological tolerance

O=C(CCCCC(=O)Nc1c(I)cc(I)c(C(=O)O)c1I)Nc1c(I)cc(I)c(C(=O)O)c1I [Iodipamide, iodipamide]
toxicity to endothelial cells (endothelial cells): toxic to endothelial cells

CC(=O)N(CC1COC(=O)O1)c1c(I)c(C(=O)NCC2COC(=O)O2)c(I)c(C(=O)N2CCOC2=O)c1I (centres unmarked) [IX-C, cyclic carbonate of IOXILAN]
degradation product confirmed by FAB mass spectroscopy [2]: presence of IOXILAN was confirmed | degradation products (HPLC) [3]: IOXILAN and carbon dioxide | predicted diagnostic dose (liver): 100 mg I/kg body weight | lipid solubility (Solubility of IX-C): lipid soluble | solubility in acetone (Solubility of IX-C; acetone): soluble in acetone | solubility in methylene chloride (Solubility of IX-C; methylene chloride): limited solubility in methylene chloride; also recorded: slightly soluble in methylene chloride | solubility in water (Solubility of IX-C; water): insoluble in water | LD50 at 168 h (in vivo; female Swiss Webster mice, tail vein, 7 days, read-out: LD50, females, as iodine): 1200 mg/kg | LD50 at 168 h (in vivo; female Swiss Webster mice, corresponding IX-C dose, read-out: LD50, females, as IX-C): 2600 mg/kg | LD50 at 168 h (in vivo; male Swiss Webster mice, tail vein, 7 days, read-out: LD50, males, as iodine): 1400 mg/kg | LD50 at 168 h (in vivo; male Swiss Webster mice, corresponding IX-C dose, read-out: LD50, males, as IX-C): 3100 mg/kg | LD50 compared with those reported for other particulate CM (Swiss Webster mice): slightly higher than those reported for other particulate CM
